Assay results as given in patent US20260193264A1, “BENZOYPARAZINE PYRAZINES AND THEIR USES” (FOGHORN THERAPEUTICS INC., priority 2022, published 2026).

Legend:
[1] = target: T1, HiBit-BRG1 fusion protein in stable HeLa cell line expressing HiBit-BRG1 and LgBit (Homo sapiens, UniProt P51532); experiment: HiBiT-BRG1 cell-based degradation assay (Nano-Glo HiBiT, 24 h); conditions: HeLa HiBit-BRG1/LgBit cells; for DC50: read-out: BRMG1 HiBit Degradation IC50; for Dmax: top dose 30 μM, read-out: BRG1 HiBit Degradation Maximum (%)
T1 construct: expressed in transfected cells
T1 sequence (P51532 whole entry, the tested form may be a part): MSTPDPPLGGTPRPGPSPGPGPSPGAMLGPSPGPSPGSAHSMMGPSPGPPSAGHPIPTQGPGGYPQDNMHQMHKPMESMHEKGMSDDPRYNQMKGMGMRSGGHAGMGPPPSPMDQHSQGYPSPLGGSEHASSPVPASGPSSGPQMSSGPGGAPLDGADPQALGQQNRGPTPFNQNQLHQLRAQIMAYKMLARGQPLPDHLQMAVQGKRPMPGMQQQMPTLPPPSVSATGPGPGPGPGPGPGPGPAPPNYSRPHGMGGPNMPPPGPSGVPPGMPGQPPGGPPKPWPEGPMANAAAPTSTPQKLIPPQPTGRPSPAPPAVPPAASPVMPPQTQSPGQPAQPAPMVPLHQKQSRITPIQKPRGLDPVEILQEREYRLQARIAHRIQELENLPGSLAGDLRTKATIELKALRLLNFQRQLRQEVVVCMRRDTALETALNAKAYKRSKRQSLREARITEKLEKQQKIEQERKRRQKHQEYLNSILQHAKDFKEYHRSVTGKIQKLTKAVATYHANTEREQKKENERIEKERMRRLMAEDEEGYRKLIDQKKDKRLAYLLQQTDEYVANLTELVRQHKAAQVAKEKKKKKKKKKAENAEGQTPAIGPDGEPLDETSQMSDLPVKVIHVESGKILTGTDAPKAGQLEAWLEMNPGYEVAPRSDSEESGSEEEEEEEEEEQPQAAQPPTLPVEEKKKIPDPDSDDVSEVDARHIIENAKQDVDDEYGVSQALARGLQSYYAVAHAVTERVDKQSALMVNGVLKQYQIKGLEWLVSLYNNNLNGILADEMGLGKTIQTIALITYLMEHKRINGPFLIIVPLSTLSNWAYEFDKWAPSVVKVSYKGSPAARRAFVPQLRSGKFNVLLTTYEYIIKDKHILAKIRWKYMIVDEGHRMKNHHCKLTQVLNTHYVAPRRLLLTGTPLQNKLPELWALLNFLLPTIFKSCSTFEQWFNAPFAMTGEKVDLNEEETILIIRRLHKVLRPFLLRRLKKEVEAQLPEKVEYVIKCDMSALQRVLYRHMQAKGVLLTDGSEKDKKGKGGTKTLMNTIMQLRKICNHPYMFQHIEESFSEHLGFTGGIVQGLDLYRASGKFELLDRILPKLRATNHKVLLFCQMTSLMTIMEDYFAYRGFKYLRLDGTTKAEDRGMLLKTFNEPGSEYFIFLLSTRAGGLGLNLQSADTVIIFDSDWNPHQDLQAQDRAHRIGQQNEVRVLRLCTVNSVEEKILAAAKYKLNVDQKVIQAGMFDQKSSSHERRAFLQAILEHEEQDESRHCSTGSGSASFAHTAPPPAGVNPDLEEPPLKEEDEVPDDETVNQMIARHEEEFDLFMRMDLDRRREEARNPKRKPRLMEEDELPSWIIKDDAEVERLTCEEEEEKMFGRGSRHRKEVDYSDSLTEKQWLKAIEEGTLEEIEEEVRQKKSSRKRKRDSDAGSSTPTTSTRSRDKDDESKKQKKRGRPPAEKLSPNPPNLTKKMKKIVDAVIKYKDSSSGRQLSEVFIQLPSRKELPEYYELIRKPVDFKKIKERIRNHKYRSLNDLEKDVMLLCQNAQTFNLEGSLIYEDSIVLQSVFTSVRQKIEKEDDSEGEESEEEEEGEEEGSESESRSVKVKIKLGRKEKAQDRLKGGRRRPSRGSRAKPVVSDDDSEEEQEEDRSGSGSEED
Method: Procedure: A stable HeLa cell line expressing HiBiT-BRM was generated. On day 0, 5000 cells were seeded in 40 μL of media into each well of 384-well cell culture plates. […] Subsequently plates were incubated for 24 h in a standard tissue culture incubator and equilibrated at room temperature for 15 minutes. Nano-Glo HiBiT Lytic Detection System (Promega N3050) reagent was freshly prepared and 20 ul was added to each well. Upon addition of this LgBit-containing reagent, the HiBiT and LgBiT proteins associate to form the luminescent NanoBiT luciferase. The plates were shaken for 10 minutes at room temperature and the bioluminescence read using an EnVision plate reader (PerkinElmer). For measurement of BRG1 degradation, a stable HeLa cell line expressing HiBit-BRG1 and LgBit was generated. The same protocol as above was then followed. The degradation % was calculated using the following formula: % degradation=100%−100%×(Lumsample−LumLC)/(LumHC−LumLC). DMSO treated cells are employed as High Control (HC) and 2 μM of a known BRM/BRG1 degrader standard treated cells are employed as Low Control (LC).

[2] = target: T2, HiBiT-BRM fusion protein in stable HeLa cell line (Homo sapiens, UniProt P51531); experiment: HiBiT-BRM cell-based degradation assay (Nano-Glo HiBiT Lytic Detection, 24 h); set-up: DC50: scale not given here; conditions: HeLa HiBiT-BRM cells; for DC50: read-out: BRM HiBit Degradation IC50; for BRM HiBit Degradation Maximum (%): top dose 30 μM
T2 construct: expressed in transfected cells
T2 sequence (P51531 whole entry, the tested form may be a part): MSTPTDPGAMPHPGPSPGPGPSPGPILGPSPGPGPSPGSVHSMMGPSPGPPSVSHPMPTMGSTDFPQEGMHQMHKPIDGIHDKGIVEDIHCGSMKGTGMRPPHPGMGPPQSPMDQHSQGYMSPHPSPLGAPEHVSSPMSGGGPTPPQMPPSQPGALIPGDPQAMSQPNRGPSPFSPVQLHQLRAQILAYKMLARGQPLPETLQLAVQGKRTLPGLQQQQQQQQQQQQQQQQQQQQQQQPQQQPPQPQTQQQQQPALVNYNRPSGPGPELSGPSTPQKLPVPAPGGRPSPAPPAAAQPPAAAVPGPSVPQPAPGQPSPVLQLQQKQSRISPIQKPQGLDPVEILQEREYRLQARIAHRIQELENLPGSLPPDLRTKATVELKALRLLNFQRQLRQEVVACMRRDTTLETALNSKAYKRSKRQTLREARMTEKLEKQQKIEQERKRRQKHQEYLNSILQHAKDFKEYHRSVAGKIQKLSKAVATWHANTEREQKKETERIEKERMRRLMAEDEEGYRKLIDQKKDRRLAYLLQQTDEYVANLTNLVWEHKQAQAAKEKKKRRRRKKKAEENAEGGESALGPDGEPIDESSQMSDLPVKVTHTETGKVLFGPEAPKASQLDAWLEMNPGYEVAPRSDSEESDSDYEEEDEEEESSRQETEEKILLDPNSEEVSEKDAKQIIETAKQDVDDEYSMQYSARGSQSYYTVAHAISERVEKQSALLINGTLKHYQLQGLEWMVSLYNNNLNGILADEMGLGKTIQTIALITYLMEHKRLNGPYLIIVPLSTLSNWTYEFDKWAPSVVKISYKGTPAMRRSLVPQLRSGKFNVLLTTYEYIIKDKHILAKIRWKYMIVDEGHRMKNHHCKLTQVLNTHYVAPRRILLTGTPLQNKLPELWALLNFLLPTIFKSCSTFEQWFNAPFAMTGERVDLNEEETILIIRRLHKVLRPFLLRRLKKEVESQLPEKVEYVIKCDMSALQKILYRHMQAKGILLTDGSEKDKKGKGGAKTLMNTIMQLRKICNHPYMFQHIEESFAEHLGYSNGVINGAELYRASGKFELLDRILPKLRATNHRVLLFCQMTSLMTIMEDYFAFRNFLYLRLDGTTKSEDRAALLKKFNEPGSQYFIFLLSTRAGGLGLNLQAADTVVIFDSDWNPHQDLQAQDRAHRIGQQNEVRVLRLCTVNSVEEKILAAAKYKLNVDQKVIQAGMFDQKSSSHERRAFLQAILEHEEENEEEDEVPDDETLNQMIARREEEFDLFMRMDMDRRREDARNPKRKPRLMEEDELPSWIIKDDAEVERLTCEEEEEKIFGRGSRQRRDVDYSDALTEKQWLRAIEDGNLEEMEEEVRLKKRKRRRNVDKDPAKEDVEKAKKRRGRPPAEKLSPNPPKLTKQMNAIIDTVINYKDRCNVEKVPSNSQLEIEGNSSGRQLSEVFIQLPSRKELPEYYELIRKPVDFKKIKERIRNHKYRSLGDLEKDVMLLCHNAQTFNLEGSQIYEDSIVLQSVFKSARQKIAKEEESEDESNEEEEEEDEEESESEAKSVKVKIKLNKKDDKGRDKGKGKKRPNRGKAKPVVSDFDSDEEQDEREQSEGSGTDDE
Method: Procedure: A stable HeLa cell line expressing HiBiT-BRM was generated. On day 0, 5000 cells were seeded in 40 μL of media into each well of 384-well cell culture plates. On day 1, cells were treated with 120 nL DMSO or 120 nL of 3-fold serially DMSO-diluted compounds (10 points in duplicate with 30 μM as final top dose). Subsequently plates were incubated for 24 h in a standard tissue culture incubator and equilibrated at room temperature for 15 minutes. Nano-Glo HiBiT Lytic Detection System (Promega N3050) reagent was freshly prepared and 20 ul was added to each well. Upon addition of this LgBit-containing reagent, the HiBiT and LgBiT proteins associate to form the luminescent NanoBiT luciferase. The plates were shaken for 10 minutes at room temperature and the bioluminescence read using an EnVision plate reader (PerkinElmer).
The degradation % was calculated using the following formula: % degradation=100%−100%×(Lumsample−LumLC)/(LumHC−LumLC). DMSO treated cells are employed as High Control (HC) and 2 μM of a known BRM/BRG1 degrader standard treated cells are employed as Low Control (LC).

DC50 [1] [nM] | Dmax [1] [%] | DC50 [2] [nM] | Structure (SMILES) | BRM HiBit Degradation Maximum (%) [2]
< 10 | > 75 | < 10 | Cc1ncsc1-c1ccc([C@H](C)NC(=O)[C@@H]2C[C@@H](O)CN2C(=O)[C@@H](c2cc(N3CCC(N4CC(c5ccc6nnc(-c7ccccc7O)cc6c5)C4)CC3)no2)C(C)C)cc1 [Compound 3, (2S,4R)-4-hydroxy-1-((R)-2-(3-(4-(3-(3-(2-hydroxyphenyl)cinnolin-6-yl)azetidin-1-yl)piperidin-1-yl)isoxazol-5-yl)-3-methylbutanoyl)-N-((S)-1-(4-(4-methylthiazol-5-yl)phenyl)ethyl)pyrrolidine-2-carboxamide] | A (“A” indicates maximum degradation ≥75%)
> 10 | > 75 | < 10 | Cc1ncsc1-c1ccc([C@H](C)NC(=O)[C@@H]2C[C@@H](O)CN2C(=O)[C@@H](c2cc(-c3cnc(N4CC(c5ccc6nnc(-c7ccccc7O)cc6c5)C4)nc3)no2)C(C)C)cc1 [Compound 4, (2S,4R)-4-hydroxy-1-[(2R)-2-[3-(2-{3-[3-(2-hydroxyphenyl)cinnolin-6-yl]azetidin-1-yl}pyrimidin-5-yl)-1,2-oxazol-5-yl]-3-methylbutanoyl]-N-[(1S)-1-[4-(4-methyl-1,3-thiazol-5-yl)phenyl]ethyl]pyrrolidine-2-carboxamide] | A (“A” indicates maximum degradation ≥75%)
 | < 50 | > 100 | Cc1ncsc1-c1ccc([C@H](C)NC(=O)[C@@H]2C[C@@H](O)CN2C(=O)[C@H](c2cc(-c3cnc(N4CC(c5ccc6nnc(-c7ccccc7O)cc6c5)C4)nc3)no2)C(C)C)cc1 [Compound 5, (2S,4R)-4-hydroxy-1-[(2S)-2-[3-(2-{3-[3-(2-hydroxyphenyl)cinnolin-6-yl]azetidin-1-yl}pyrimidin-5-yl)-1,2-oxazol-5-yl]-3-methylbutanoyl]-N-[(1S)-1-[4-(4-methyl-1,3-thiazol-5-yl)phenyl]ethyl]pyrrolidine-2-carboxamide] | B (“B” indicates maximum degradation ≥50%)
 | < 50 | > 100 | Cc1ncsc1-c1ccc([C@H](C)NC(=O)[C@@H]2C[C@@H](O)CN2C(=O)[C@@H](c2cc(OCC(=O)N3CC(c4ccc5nnc(-c6ccccc6O)cc5c4)C3)no2)C(C)C)cc1 [Compound 6, (2S,4R)-4-hydroxy-1-[(2R)-2-[3-(2-{3-[3-(2-hydroxyphenyl)cinnolin-6-yl]azetidin-1-yl}-2-oxoethoxy)-1,2-oxazol-5-yl]-3-methylbutanoyl]-N-[(1S)-1-[4-(4-methyl-1,3-thiazol-5-yl)phenyl]ethyl]pyrrolidine-2-carboxamide] | B (“B” indicates maximum degradation ≥50%)
> 100 | > 50 | > 10 | Cc1ncsc1-c1ccc([C@H](C)NC(=O)[C@@H]2C[C@@H](O)CN2C(=O)[C@@H](c2cc(N3CCC(C(=O)N4CC(c5ccc6nnc(-c7ccccc7O)cc6c5)C4)CC3)no2)C(C)C)cc1 [Compound 7, (2S,4R)-4-hydroxy-1-((R)-2-(3-(4-(3-(3-(2-hydroxyphenyl)cinnolin-6-yl)azetidine-1-carbonyl)piperidin-1-yl)isoxazol-5-yl)-3-methylbutanoyl)-N-((S)-1-(4-(4-methylthiazol-5-yl)phenyl)ethyl)pyrrolidine-2-carboxamide] | A (“A” indicates maximum degradation ≥75%)
 | > 50 | < 10 | Cc1ncsc1-c1ccc([C@H](C)NC(=O)[C@@H]2C[C@@H](O)CN2C(=O)[C@@H](c2cc(OCCN3CC(c4ccc5cc(-c6ccccc6O)nnc5c4)C3)no2)C(C)C)cc1 [Compound 8, (2S,4R)-4-hydroxy-1-[(2R)-2-[3-(2-{3-[3-(2-hydroxyphenyl)cinnolin-7-yl]azetidin-1-yl}ethoxy)-1,2-oxazol-5-yl]-3-methylbutanoyl]-N-[(1S)-1-[4-(4-methyl-1,3-thiazol-5-yl)phenyl]ethyl]pyrrolidine-2-carboxamide] | A (“A” indicates maximum degradation ≥75%)
 | < 50 | > 10 | Cc1ncsc1-c1ccc([C@H](C)NC(=O)[C@@H]2C[C@@H](O)CN2C(=O)[C@@H](c2cc(N3CCC(CN4CC(c5ccc6cc(-c7ccccc7O)nnc6c5)C4)CC3)no2)C(C)C)cc1 [Compound 9, (2S,4R)-4-hydroxy-1-((R)-2-(3-(4-((3-(3-(2-hydroxyphenyl)cinnolin-7-yl)azetidin-1-yl)methyl)piperidin-1-yl)isoxazol-5-yl)-3-methylbutanoyl)-N-((S)-1-(4-(4-methylthiazol-5-yl)phenyl)ethyl)pyrrolidine-2-carboxamide] | A (“A” indicates maximum degradation ≥75%)
 | < 50 | > 10 | Cc1ncsc1-c1ccc([C@H](C)NC(=O)[C@@H]2C[C@@H](O)CN2C(=O)[C@@H](c2cc(N3CCC(N4CC(c5ccc6cc(-c7ccccc7O)nnc6c5)C4)CC3)no2)C(C)C)cc1 [Compound 10, (2S,4R)-4-hydroxy-1-((R)-2-(3-(4-(3-(3-(2-hydroxyphenyl)cinnolin-7-yl)azetidin-1-yl)piperidin-1-yl)isoxazol-5-yl)-3-methylbutanoyl)-N-((S)-1-(4-(4-methylthiazol-5-yl)phenyl)ethyl)pyrrolidine-2-carboxamide] | A (“A” indicates maximum degradation ≥75%)
 | < 50 | < 10 | Cc1ncsc1-c1ccc([C@H](C)NC(=O)[C@@H]2C[C@@H](O)CN2C(=O)[C@@H](c2cc(-c3cnc(N4CC(c5ccc6cc(-c7ccccc7O)nnc6c5)C4)nc3)no2)C(C)C)cc1 [Compound 11, (2S,4R)-4-hydroxy-1-[(2R)-2-[3-(2-{3-[3-(2-hydroxyphenyl)cinnolin-7-yl]azetidin-1-yl}pyrimidin-5-yl)-1,2-oxazol-5-yl]-3-methylbutanoyl]-N-[(1S)-1-[4-(4-methyl-1,3-thiazol-5-yl)phenyl]ethyl]pyrrolidine-2-carboxamide] | A (“A” indicates maximum degradation ≥75%)
 | < 50 | > 100 | Cc1ncsc1-c1ccc([C@H](C)NC(=O)[C@@H]2C[C@@H](O)CN2C(=O)[C@H](c2cc(-c3cnc(N4CC(c5ccc6cc(-c7ccccc7O)nnc6c5)C4)nc3)no2)C(C)C)cc1 [Compound 12, (2S,4R)-4-hydroxy-1-[(2S)-2-[3-(2-{3-[3-(2-hydroxyphenyl)cinnolin-7-yl]azetidin-1-yl}pyrimidin-5-yl)-1,2-oxazol-5-yl]-3-methylbutanoyl]-N-[(1S)-1-[4-(4-methyl-1,3-thiazol-5-yl)phenyl]ethyl]pyrrolidine-2-carboxamide] | C (“C” indicates maximum degradation <50%)
< 10 | > 75 | < 10 | Cc1ncsc1-c1ccc([C@H](C)NC(=O)[C@@H]2C[C@@H](O)CN2C(=O)[C@@H](c2cc(-c3cnc(N4CCN(c5ccc6nnc(-c7ccccc7O)cc6c5)CC4)nc3)no2)C(C)C)cc1 [Compound 13, (2S,4R)-4-hydroxy-1-((R)-2-(3-(2-(4-(3-(2-hydroxyphenyl)cinnolin-6-yl)piperazin-1-yl)pyrimidin-5-yl)isoxazol-5-yl)-3-methylbutanoyl)-N—((S)-1-(4-(4-methylthiazol-5-yl)phenyl)ethyl)pyrrolidine-2-carboxamide] | A (“A” indicates maximum degradation ≥75%)
> 100 | > 75 | > 10 | Cc1ncsc1-c1ccc([C@H](C)NC(=O)[C@@H]2C[C@@H](O)CN2C(=O)[C@H](c2cc(-c3cnc(N4CCN(c5ccc6nnc(-c7ccccc7O)cc6c5)CC4)nc3)no2)C(C)C)cc1 [Compound 14, (2S,4R)-4-hydroxy-1-((S)-2-(3-(2-(4-(3-(2-hydroxyphenyl)cinnolin-6-yl)piperazin-1-yl)pyrimidin-5-yl)isoxazol-5-yl)-3-methylbutanoyl)-N—((S)-1-(4-(4-methylthiazol-5-yl)phenyl)ethyl)pyrrolidine-2-carboxamide] | A (“A” indicates maximum degradation ≥75%)
 | < 50 | > 10 | Cc1ncsc1-c1ccc([C@H](C)NC(=O)[C@@H]2C[C@@H](O)CN2C(=O)[C@H](c2cc(-c3cnc(N4CC5(CC(c6ccc7cc(-c8ccccc8O)nnc7c6)C5)C4)nc3)no2)C(C)C)cc1 [Compound 17] | A (“A” indicates maximum degradation ≥75%)
